# Measured values published in patent US7118895B2, “Process for producing aglycon by using diglycosidase and flavor-improved food containing the aglycon and converting agent to be used in the process” (Amano Enzyme Inc., priority 2000, dated 2006).
# System: Crude diglycosidase
# Assay: Examination of temperature in the conversion into isoflavone aglycons by diglycosidase using soybean materials
# Format: biochemical, Penicillium multicolor IAM7153
# Design: Decomposition efficiency of glycitin family in roasted soy flour / Decomposition efficiency of daidzin family in roasted soy flour / Decomposition efficiency of genistin family in soymilk / Decomposition efficiency of daidzin family in soymilk / Decomposition efficiency of glycitin family in defatted soybean / Decomposition efficiency of daidzin family in defatted soybean: concentration or dose not given beside the values
# Procedure: Into 400 μL of 20 mM acetate buffer of pH 4.0 was suspended 50 mg of each of various soybean materials (roasted soy flour (manufactured by Fuji Shokuryo K.K.), soymilk (manufactured by Gitoh Shokuhin K.K.), defatted soybean (manufactured by Fuji Seiyu K.K.), concentrated soybean protein (manufactured by Fuji Seiyu K.K.)), whereby a substrate solution was prepared. Crude diglycosidase was diluted with 20 mM acetate buffer of pH 4.0 to be the glycosidase activity of 1.88 AU/mL. Fifty μL of the enzyme solution was mixed with the substrate solution and the whole was reacted at 80, 65, 55, 45, 37, or 30° C. at the total volume of 500 μL. To the reaction mixture was added 700 μL of ethanol after 0, 1, 3, and 6 hours of the reaction. After stirring and ultrasonication, the mixture was subjected to centrifugal separation at 15,000 rpm and 4° C. for 10 minutes. The supernatant was filtered through a filter and the existence of isoflavone glycosides and aglycon isoflavones contained in the reaction mixture was detected by HLPC.
# [1] = 30° C., heat treatment of enzyme no, reaction time 0 h
# [2] = 30° C., heat treatment of enzyme no, reaction time 1 h
# [3] = 30° C., heat treatment of enzyme no, reaction time 3 h
# [4] = 30° C., heat treatment of enzyme no, reaction time 6 h
# [5] = 30° C., heat treatment of enzyme yes, reaction time 6 h
# [6] = 30 °C, heat treatment of enzyme: no, 0 h
# [7] = 30 °C, heat treatment of enzyme: no, 1 h
# [8] = 30 °C, heat treatment of enzyme: no, 3 h
# [9] = 30 °C, heat treatment of enzyme: no, 6 h
# [10] = 30 °C, heat treatment of enzyme: yes, 6 h
# [11] = 45° C., heat treatment of enzyme no, reaction time 0 h
# [12] = 45° C., heat treatment of enzyme no, reaction time 1 h
# [13] = 45° C., heat treatment of enzyme no, reaction time 3 h
# [14] = 45° C., heat treatment of enzyme no, reaction time 6 h
# [15] = 45° C., heat treatment of enzyme yes, reaction time 6 h
# [16] = 45 °C, heat treatment of enzyme: no, 0 h
# [17] = 45 °C, heat treatment of enzyme: no, 1 h
# [18] = 45 °C, heat treatment of enzyme: no, 3 h
# [19] = 45 °C, heat treatment of enzyme: no, 6 h
# [20] = 45 °C, heat treatment of enzyme: yes, 6 h
# [21] = 55° C., heat treatment of enzyme no, reaction time 0 h
# [22] = 55° C., heat treatment of enzyme no, reaction time 1 h
# [23] = 55° C., heat treatment of enzyme no, reaction time 3 h
# [24] = 55° C., heat treatment of enzyme no, reaction time 6 h
# [25] = 55° C., heat treatment of enzyme yes, reaction time 6 h
# [26] = 55 °C, heat treatment of enzyme: no, 0 h
# [27] = 55 °C, heat treatment of enzyme: no, 1 h
# [28] = 55 °C, heat treatment of enzyme: no, 3 h
# [29] = 55 °C, heat treatment of enzyme: no, 6 h
# [30] = 55 °C, heat treatment of enzyme: yes, 6 h
# [31] = 65° C., heat treatment of enzyme no, reaction time 0 h
# [32] = 65° C., heat treatment of enzyme no, reaction time 1 h
# [33] = 65° C., heat treatment of enzyme no, reaction time 3 h
# [34] = 65° C., heat treatment of enzyme no, reaction time 6 h
# [35] = 65° C., heat treatment of enzyme yes, reaction time 6 h
# [36] = 65 °C, heat treatment of enzyme: no, 0 h
# [37] = 65 °C, heat treatment of enzyme: no, 1 h
# [38] = 65 °C, heat treatment of enzyme: no, 3 h
# [39] = 65 °C, heat treatment of enzyme: no, 6 h
# [40] = 65 °C, heat treatment of enzyme: yes, 6 h
# [41] = 80° C., heat treatment of enzyme no, reaction time 0 h
# [42] = 80° C., heat treatment of enzyme no, reaction time 1 h
# [43] = 80° C., heat treatment of enzyme no, reaction time 3 h
# [44] = 80° C., heat treatment of enzyme no, reaction time 6 h
# [45] = 80° C., heat treatment of enzyme yes, reaction time 6 h
# [46] = 80 °C, heat treatment of enzyme: no, 0 h
# [47] = 80 °C, heat treatment of enzyme: no, 1 h
# [48] = 80 °C, heat treatment of enzyme: no, 3 h
# [49] = 80 °C, heat treatment of enzyme: no, 6 h
# [50] = 80 °C, heat treatment of enzyme: yes, 6 h
compound,measurement,setting,value
O=c1c(-c2ccc(O)cc2)coc2cc(O[C@@H]3O[C@H](CO)[C@@H](O)[C@H](O)[C@H]3O)cc(O)c12 [genistin],Decomposition efficiency of genistin family in concentrated soybean protein,[1],49.8%
same,Decomposition efficiency of genistin family in defatted soybean,[1],38.0%
same,Decomposition efficiency of genistin family in concentrated soybean protein,[2],41.1%
same,Decomposition efficiency of genistin family in defatted soybean,[2],not detected
same,Decomposition efficiency of genistin family in concentrated soybean protein,[3],30.3%
same,Decomposition efficiency of genistin family in defatted soybean,[3],not detected
same,Decomposition efficiency of genistin family in concentrated soybean protein,[4],19.7%
same,Decomposition efficiency of genistin family in defatted soybean,[4],7.6%
same,Decomposition efficiency of genistin family in concentrated soybean protein,[5],51.8%
same,Decomposition efficiency of genistin family in defatted soybean,[5],not detected
same,Decomposition efficiency of genistin family in roasted soy flour,[6],49.7%
same,Decomposition efficiency of genistin family in soymilk,[6],30.7%
same,Decomposition efficiency of genistin family in roasted soy flour,[7],25.7%
same,Decomposition efficiency of genistin family in soymilk,[7],not detected
same,Decomposition efficiency of genistin family in roasted soy flour,[8],12.0%
same,Decomposition efficiency of genistin family in soymilk,[8],not detected
same,Decomposition efficiency of genistin family in roasted soy flour,[9],5.5%
same,Decomposition efficiency of genistin family in soymilk,[9],not detected
same,Decomposition efficiency of genistin family in roasted soy flour,[10],50.3%
same,Decomposition efficiency of genistin family in soymilk,[10],31.2%
same,Decomposition efficiency of genistin family in concentrated soybean protein,[11],49.7%
same,Decomposition efficiency of genistin family in defatted soybean,[11],37.0%
same,Decomposition efficiency of genistin family in concentrated soybean protein,[12],22.2%
same,Decomposition efficiency of genistin family in defatted soybean,[12],0.9%
same,Decomposition efficiency of genistin family in concentrated soybean protein,[13],15.6%
same,Decomposition efficiency of genistin family in defatted soybean,[13],1.0%
same,Decomposition efficiency of genistin family in concentrated soybean protein,[14],5.3%
same,Decomposition efficiency of genistin family in defatted soybean,[14],1.0%
same,Decomposition efficiency of genistin family in concentrated soybean protein,[15],54.5%
same,Decomposition efficiency of genistin family in defatted soybean,[15],1.3%
same,Decomposition efficiency of genistin family in roasted soy flour,[16],50.2%
same,Decomposition efficiency of genistin family in soymilk,[16],31.0%
same,Decomposition efficiency of genistin family in roasted soy flour,[17],3.7%
same,Decomposition efficiency of genistin family in soymilk,[17],not detected
same,Decomposition efficiency of genistin family in roasted soy flour,[18],5.6%
same,Decomposition efficiency of genistin family in soymilk,[18],not detected
same,Decomposition efficiency of genistin family in roasted soy flour,[19],1.2%
same,Decomposition efficiency of genistin family in soymilk,[19],not detected
same,Decomposition efficiency of genistin family in roasted soy flour,[20],51.7%
same,Decomposition efficiency of genistin family in soymilk,[20],34.4%
same,Decomposition efficiency of genistin family in concentrated soybean protein,[21],50.1%
same,Decomposition efficiency of genistin family in defatted soybean,[21],38.0%
same,Decomposition efficiency of genistin family in concentrated soybean protein,[22],7.0%
same,Decomposition efficiency of genistin family in defatted soybean,[22],0.0%
same,Decomposition efficiency of genistin family in concentrated soybean protein,[23],0.8%
same,Decomposition efficiency of genistin family in defatted soybean,[23],0.0%
same,Decomposition efficiency of genistin family in concentrated soybean protein,[24],not detected
same,Decomposition efficiency of genistin family in defatted soybean,[24],0.0%
same,Decomposition efficiency of genistin family in concentrated soybean protein,[25],52.3%
same,Decomposition efficiency of genistin family in defatted soybean,[25],0.0%
same,Decomposition efficiency of genistin family in roasted soy flour,[26],49.7%
same,Decomposition efficiency of genistin family in soymilk,[26],31.6%
same,Decomposition efficiency of genistin family in roasted soy flour,[27],1.2%
same,Decomposition efficiency of genistin family in soymilk,[27],not detected
same,Decomposition efficiency of genistin family in roasted soy flour,[28],not detected
same,Decomposition efficiency of genistin family in soymilk,[28],not detected
same,Decomposition efficiency of genistin family in roasted soy flour,[29],not detected
same,Decomposition efficiency of genistin family in soymilk,[29],not detected
same,Decomposition efficiency of genistin family in roasted soy flour,[30],54.0%
same,Decomposition efficiency of genistin family in soymilk,[30],37.4%
same,Decomposition efficiency of genistin family in concentrated soybean protein,[31],49.8%
same,Decomposition efficiency of genistin family in defatted soybean,[31],37.0%
same,Decomposition efficiency of genistin family in concentrated soybean protein,[32],not detected
same,Decomposition efficiency of genistin family in defatted soybean,[32],0.0%
same,Decomposition efficiency of genistin family in concentrated soybean protein,[33],not detected
same,Decomposition efficiency of genistin family in defatted soybean,[33],1.8%
same,Decomposition efficiency of genistin family in concentrated soybean protein,[34],not detected
same,Decomposition efficiency of genistin family in defatted soybean,[34],3.3%
same,Decomposition efficiency of genistin family in concentrated soybean protein,[35],50.8%
same,Decomposition efficiency of genistin family in defatted soybean,[35],28.2%
same,Decomposition efficiency of genistin family in roasted soy flour,[36],49.7%
same,Decomposition efficiency of genistin family in soymilk,[36],30.7%
same,Decomposition efficiency of genistin family in roasted soy flour,[37],not detected
same,Decomposition efficiency of genistin family in soymilk,[37],not detected
same,Decomposition efficiency of genistin family in roasted soy flour,[38],not detected
same,Decomposition efficiency of genistin family in soymilk,[38],not detected
same,Decomposition efficiency of genistin family in roasted soy flour,[39],not detected
same,Decomposition efficiency of genistin family in soymilk,[39],not detected
same,Decomposition efficiency of genistin family in roasted soy flour,[40],50.7%
same,Decomposition efficiency of genistin family in soymilk,[40],44.4%
same,Decomposition efficiency of genistin family in concentrated soybean protein,[41],49.7%
same,Decomposition efficiency of genistin family in defatted soybean,[41],37.0%
same,Decomposition efficiency of genistin family in concentrated soybean protein,[42],29.6%
same,Decomposition efficiency of genistin family in defatted soybean,[42],9.6%
same,Decomposition efficiency of genistin family in concentrated soybean protein,[43],30.3%
same,Decomposition efficiency of genistin family in defatted soybean,[43],22.1%
same,Decomposition efficiency of genistin family in concentrated soybean protein,[44],32.3%
same,Decomposition efficiency of genistin family in defatted soybean,[44],35.3%
same,Decomposition efficiency of genistin family in concentrated soybean protein,[45],51.9%
same,Decomposition efficiency of genistin family in defatted soybean,[45],57.8%
same,Decomposition efficiency of genistin family in roasted soy flour,[46],50.2%
same,Decomposition efficiency of genistin family in soymilk,[46],31.0%
same,Decomposition efficiency of genistin family in roasted soy flour,[47],7.8%
same,Decomposition efficiency of genistin family in soymilk,[47],10.6%
same,Decomposition efficiency of genistin family in roasted soy flour,[48],9.1%
same,Decomposition efficiency of genistin family in soymilk,[48],24.3%
same,Decomposition efficiency of genistin family in roasted soy flour,[49],18.4%
same,Decomposition efficiency of genistin family in soymilk,[49],43.9%
same,Decomposition efficiency of genistin family in roasted soy flour,[50],52.2%
same,Decomposition efficiency of genistin family in soymilk,[50],64.5%
